Experimental data from the NIST ThermoML archive (doi:10.1016/j.jct.2018.12.021).
± gives the expanded uncertainty stated by the source.

What was measured:
[1] = mn = molality of the nth substance listed, in mol/kg; settings: 303.15 K, Ring tensiometer, m2 = 0
[2] = for Normal melting temperature: Crystal, DTA

O [water] + CCCCCCCCCCCC[n+]1cscc1C.[Br-]
surface tension liquid-gas [1]: 71.14 ± 2.3 mN/m

CCCCCCCCCCCC[n+]1cscc1C.[Br-] [N-dodecyl-4-methylthiazolium bromide]
Normal melting temperature [2]: 103.16 ± 0.7 °C

O [water]
surface tension liquid-gas ([2]; 303.15 K, Liquid, Ring tensiometer): 71.14 ± 2.3 mN/m

CCCCCCCCCCCC[n+]1ccsc1.[Br-] [N-dodecylthiazolium bromide]
Normal melting temperature [2]: 67 ± 0.7 °C

O [water] + CCCCCCCCCCCC[n+]1ccsc1.[Br-]
surface tension liquid-gas [1]: 71.14 ± 2.3 mN/m
